Source: US20220235255A1, “FLUORINE SUBSTITUTED UNSYMMETRICAL ETHERS, AND COMPOSITIONS, METHODS AND USES INCLUDING SAME” (HONEYWELL INTERNATIONAL INC., priority 2021, published 2022)

Tests used:
Assay type in all cases: physicochemical
[1] = Dielectric constant, ASTM D150-11, room temperature, 20 GHz
From the text: Dielectric Constant means the dielectric constant as measured in accordance with ASTM D150-11 at room temperature at 20 giga hertz (GHz).

[2] = Flash point / non-flammability, ASTM D3828-16a, NFPA 30
From the text: Flash Point refers the lowest temperature at which vapors of the liquid will keep burning after the ignition source is removed as determined in accordance with ASTM D3828-16a.
The flash point of a thermal management composition or fluid refers the lowest temperature at which vapours of the composition will keep burning after the ignition source is removed as determined in accordance with ASTM D3828-16a.

Normal boiling point = test: Normal boiling point

Which dielectric constant [1] does the source give for FC(F)(F)COC(C(F)(F)F)C(F)(F)F [Compound 1A, propane, 2-(2′,2′,2′-trifluorethoxy)-(1,1,1,3,3,3-hexafluoro)] here?
The dielectric constant was “below 4”.

What about the flash point [2] of the same molecule?
The flash point was “no flash point”.

And the normal boiling point (Normal boiling point)?
The normal boiling point was “about 69 °C”.
